According to patent US4076816A, “Antibiotic mixture” (priority 1974, dated 1978):
Where a name gives a salt, the structure may show the parent alone.

What was measured:
Format in all cases: cell-based
[1] = tested on: Escherichia coli (strain Leo HA2); experiment: in vitro serial dilution test, minimum inhibitory concentration; conditions: 10^6 cells/ml, over night at 37° C, compound alone
Experimental: The in vitro activity of FL 1060, trimethoprim, and combinations of the two compounds against Escherichia coli (strain Leo HA2) was determined in a serial dilution test. […] Minimum inhibitory concentrations (MIC) were taken as the lowest concentrations of either of the compounds alone or of a combination of both at which no visible growth occurred.

Haemophilus influenzae = experiment: combined activity in vitro, serial dilutions in chocolate agar plates arranged in form of a chess board, MIC; conditions: compound alone
Experimental: Combined activity of FL 1060 and trimethoprim against Haemophilus influenzae in vitro. Serial dilutions of FL 1060 and trimethoprim were performed in "chocolate agar"^x) plates arranged in form of a chess board. Inoculum: 3.5 μl drops containing about 10^7 cells/ml. Incubation: overnight at 36° C. ^x) Caseinhydrolysate (pancreatic) 1.3%, dextrose 0.085%, sodium chloride 0.21%, 1-cystine 0.004%, agar (Oxoid No. 1) 0.6% in distilled water, pH 7.1 after autoclaving, horse blood (defibriated) 5%, yeast extract (Difco) 1.3% (membrane filtered) added at 80° C.

[2] = tested on: Escherichia coli (Leo HA2); experiment: serial dilution test (technique of Example 1), medium with addition of 10 g of sodium chloride per liter, MIC; conditions: medium + 10 g sodium chloride per liter, compound alone
Experimental: (§1) A fluid medium containing:
(§2) and containing the appropriate concentrations of the compounds, or of the combinations of them was inoculated with 10^6 cells/ml organisms and incubated over night at 37° C. Minimum inhibitory concentrations (MIC) were taken as the lowest concentrations of either of the compounds alone or of a combination of both at which no visible growth occurred.

[3] = tested on: Salmonella typhimurium (Leo HL2); experiment: as above; conditions: Salmonella enterica, medium + 10 g sodium chloride per liter, compound alone
Experimental: as §1, §2

[4] = tested on: Klebsiella pneumoniae (Leo HE); experiment: as above; conditions: medium + 10 g sodium chloride per liter, compound alone
Experimental: as §1, §2

[5] = strain IX14, overnight at 36° C
[6] = strain IX15, overnight at 36° C

MIC [1] [µg/mL]	MIC (Haemophilus influenzae; strain IX5, overnight at 36° C) [µg/mL]	MIC (Haemophilus influenzae; strain IX6, overnight at 36° C) [µg/mL]	MIC (Haemophilus influenzae; [5]) [µg/mL]	MIC (Haemophilus influenzae; [6]) [µg/mL]	MIC [2] [µg/mL]	MIC [3] [µg/mL]	MIC [4] [µg/mL]	SMILES
0.016	> 100	> 100	> 100	> 100	50	> 100	0.5	CC1(C)S[C@@H]2[C@H](N=CN3CCCCCC3)C(=O)N2[C@H]1C(=O)O [FL 1060, 6-[(hexahydro-1H-azepin-1-yl)-methyleneamino]-penicillanic acid, hydrochloride, dihydrate]
100	1	3.2	> 100	> 100	> 50	> 100	1.6	COc1cc(Cc2cnc(N)nc2N)cc(OC)c1OC [Trimethoprim, 2,4-diamino-5(3,4,5-trimethoxybenzyl)-pyrimidine]
